In article PMC9946977, “Identification of linderalactone as a natural inhibitor of SHP2 to ameliorate CCl4-induced liver fibrosis” (Frontiers in Pharmacology, 2023):

Biological target: T1, SHP2 PTP domain (Homo sapiens, UniProt Q06124)
T1 construct: Human SHP2 PTP domain (A237–I529) expression constructs; His-tag; made in house; host or cells: E. coli BL21 (DE3)
T1 sequence (Q06124 237-529): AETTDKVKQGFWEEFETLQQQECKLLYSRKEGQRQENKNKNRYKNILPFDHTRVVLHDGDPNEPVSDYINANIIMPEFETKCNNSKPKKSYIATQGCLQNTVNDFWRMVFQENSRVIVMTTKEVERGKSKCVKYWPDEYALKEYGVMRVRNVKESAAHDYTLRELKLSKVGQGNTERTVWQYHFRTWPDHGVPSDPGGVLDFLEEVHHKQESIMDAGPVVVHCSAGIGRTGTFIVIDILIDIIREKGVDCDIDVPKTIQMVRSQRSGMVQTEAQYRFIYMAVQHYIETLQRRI
Test: SHP2 inhibition assay (DiFMUP) with SHP2-PTP; HTS and dose-response
Format: biochemical
Experimental: Human SHP2 PTP domain (A237–I529) expression constructs were engineered by cloning PTPN11 (NP_002825.3) into the pET30 plasmid with a His-tag to support further protein purification. The K366A/Q510A double mutation was introduced into the wild-type template using a site-directed mutagenesis kit (E0554S; New England Biolabs). The expression constructs were sequenced and transformed into BL21 (DE3)-competent cells. E. coli cells were grown at 37°C in an LB culture medium in the presence of […] kanamycin until the OD600 reached 1.0. The medium was then cooled to 18°C and 1 mM isopropyl ß-D-1-thiogalactopyranoside (IPTG) was added to induce protein expression overnight.
A surrogate phosphatase substrate, 6,8-difluoro-4-methylumbelliferyl phosphate (DiFMUP, Thermo Fisher, #D22065), was used to monitor the catalytic activity of SHP2 in a prompt fluorescence assay format. Specifically, the DiFMUP phosphatase assay was performed at 20°C in a 384-well Griener CELLSTAR black polystyrene plate in the buffer condition of 60 mM HEPES (pH7.5), 75 mM NaCl, 75 mM KCl, 1 mM EDTA, 0.05% Tween-20, 5 mM dithiothreitol (DTT). The final reaction volume was 25 μL. NP compound libraries were obtained from TargetMol at a stock concentration of 10 mM, dissolved in DMSO. The purity of the active compound LIN used in this study is 96.27% as tested by HPLC analysis. The HPLC traces is shown in Supporting Information. We co-incubated 0.5 nM of SHP2-PTP enzyme with tested NPs for 30 min at 20°C, followed by the addition of DiFMUP into the reaction. After 30 min, 5 μL of bpV(phen) solution was added to quench the dephosphorylation reaction. The signals were read on a plate reader (SpectraMax iD5, Molecular Devices). The excitation and emission wavelengths were 340 and 450 nm, respectively. The inhibitor dose-response curves were evaluated using a normalised IC50 regression curve fitting with control-based normalisation. For the full-length SHP2 inhibition assay, 0.5 μM of a bisphosphorylated pIRS-1 peptide (ChinaPeptides Ltd. Shanghai) was added for partial SHP2 activation. […]

IC50 (0.5 nM SHP2-PTP, DiFMUP substrate, 30 min co-incubation at 20°C, read-out: IC50 against the SHP2 PTP domain): 1870 ± 850 nM
Structure (SMILES): C/C1=C\CCC2=C[C@@H](OC2=O)c2c(C)coc2C1 [LIN, linderalactone]
inhibitory activity in verification experiment of initial hits (dose-response confirmation of HTS hits): best inhibitory activity among the screened hits
